Entries after “also recorded” stand apart in the source; their conditions may differ. Like-named read-outs stand apart in the source and are kept apart here. Where only a bound is given, the exact number is not on record here.

The subject of test [1] is male CD-1 mice, electrically stimulated ejaculation. Put plainly: electroejaculation test in conscious male mice (bipolar rectal probe). It counts as in vivo, mouse. The following applies: for Effective Dose / Ejaculation Inhibition % / Max. ejaculation Inhibition / Optimal Dose: male mice; for Effective Dose / Ejaculation Inhibition %: oral; for Ejaculation Inhibition %: at the effective dose; for Max. ejaculation Inhibition / Optimal Dose: subcutaneous injection; for Max. ejaculation Inhibition: at the optimal dose; for Optimal Dose: dose giving max. ejaculation inhibition. As to the method:
To investigate the efficacy of delta opioid receptor agonists as a treatment for premature ejaculation, intact conscious male mice were electrically stimulated subsequent to the administration of a delta opioid receptor agonist to determine if a delay in ejaculation was observed when compared to administration of a placebo
Male, CD-1 mice (20-30 g) were housed in groups of ten (10) in Plexiglas® chambers with food and water available before any procedure. Animals were maintained on a 12 hour light/dark cycle in a temperature-controlled animal colony. Studies were carried out in accordance with the Guide for the Care and Use of Laboratory animals as adopted and promulgated by the National Institutes of Health.
Specifically, the bipolar electrode probe is an approximately 5 cm long tube having an outer diameter of approximately 0.25 cm with an inner diameter of approximately 0.08. In the center lumen of the elongated tubular body 12 are embedded cathode 16 and anode 18, which are formed of a conductive material, preferably platinum. The cathode 16 and anode 18 are connected at one end to external power supplying means (not shown). Anode 18 extends at the other end all the way to one extremity of the elongated body 12 and forming an anode terminal 22 at such extremity. Cathode 16 only extends to a middle portion of the elongated body 12 and forming a cathode terminal 20 at such middle portion. The cathode terminal 20 is preferably positioned away from the anode terminal 22, at a distance of about 0.5 cm.
The testing delta opioid receptor agonist (SNC-80) was purchased from Tocris Cookson, Inc., Ellisville, Mo., USA, and dissolved in 5% dextrose injection solution. An equimolar amount of aqueous hydrochloric acid was added when the manufacturer packaged the compound in its base form. The placebo was 5% dextrose alone. Each mouse was injected subcutaneously with […] of the SNC-80 compound or with 10 mg/kg of a placebo. 10 minutes after the injection, the test mouse was subjected to electrostimulation. Ten mice were tested for each dose level, the order of each mouse receiving different doses was blinded and in a random manner.
During the testing the mouse was restrained in a cone bag with rear legs extending from the bag. Excess fecal matter was removed from the rectum and the above-discussed lubricated bipolar electrode was inserted approximately 2.5 cm into the rectum. […] The stimulation regime included 4 stimulating events for each voltage lasting 2 seconds with a rest period of 2 seconds between stimulating events until ejaculation occurred or the terminal voltage of 8 volts was reached. A white coagulum ejaculate from the penis indicates a successful ejaculation.
For the electroejaculation test, dose-response lines were constructed as an accumulated ejaculation at a specified voltage. A minimum of 10 mice was used at each dose level. Each dose response was the average of two to three independent experiments. Students' t-test was used to assess unpaired comparison, with […] indicating significance.
Testing was conducted on mice injected with SNC-80 or a buffer vehicle for the control group. […] Each mouse was subjected to electroejaculation at 40 Hz (starting at 3 volts with a gradual increase to 8 volts by increments of 0.5 volts) approximately 10 minutes after subcutaneous administration of SNC-80 at different doses of 0, 0.1, 0.3 and 1 mg/kg. A minimum of 10 mice were used at each dose level. Each does response was the average of two to three independent experiments±SEM.
To determine if SNC-80 inhibits the ejaculation via specific binding to delta opioid receptor, the effect of SNC-80 on ejaculation was tested against the delta opioid selective antagonist naltrindole (NTI). Subcutaneous injections of a control vehicle (CTL), 0.5 mg/kg SNC-80, 0.5 mg/kg SNC-80 plus 0.1 mg/kg of NTI and 0.1 mg/kg of NTI were administered to the mice. A minimum of 10 mice was utilized for each dose level. […]

Test [2] has as its system mouse vas deferens. The following applies: background statement; cited from earlier work.
The target in the next test is delta opioid receptor (Homo sapiens, UniProt P41143). Nature of the test: radio-ligand competition binding assay, δ.
In test [3] the test system is mouse vas deferens. Nature of the test: in vitro inhibition of electrically stimulated contraction of mouse vas deferens in tissue bath.
The target of a further test is κ opioid receptor (Homo sapiens, UniProt P41145). Put plainly: radio-ligand competition binding assay, κ.
The next test deals with μ opioid receptor (Homo sapiens, UniProt P35372). Nature of the test: radio-ligand competition binding assay, μ.
Setting [4] is: radio-ligand competition binding per U.S. Pat. Nos. 5,985,880 and 5,807,858, read-out: δ binding affinity.
Setting [5] is: radio-ligand competition binding per U.S. Pat. Nos. 5,985,880 and 5,807,858, read-out: κ binding affinity.

`CCN(CC)C(=O)c1ccc([C@H](c2ccccc2)N2C[C@@H](C)N(Cc3ccc(O)cc3)C[C@@H]2C)cc1` [Example 37, 4-((alpha-S)-alpha-((2S,5R)-2,5-Dimethyl-4-(4-hydroxybenzyl)-1-piperazinyl)-benzyl)-N,N-diethylbenzamide]: in test [1], the “Effective Dose” value was found to be 3 mg/kg and the “Ejaculation Inhibition %” value amounted to 50%.
On the same counts, the results for `CCN(CC)C(=O)c1ccc([C@H](c2cccc(OC)c2)N2C[C@@H](C)N(Cc3ccccc3F)C[C@@H]2C)cc1` [Example 39, 4-((alpha-R)-alpha-((2S,5R)-2,5-Dimethyl-4-(2-fluorobenzyl)-1-piperazinyl)-3-methoxybenzyl)-N,N-diethylbenzamide] are 10 mg/kg and 50%.
In the case of `C=CCN1C[C@H](C)N([C@H](c2ccc(C(=O)N(CC)CC)cc2)c2cccc(OC)c2)C[C@H]1C` [SNC-80, reference compound], the “contraction of mouse vas deferens smooth muscle in vitro” value with mouse vas deferens [2] is listed as “block the contraction of mouse vas deferens smooth muscle in vitro”. Also, the “inhibitory effect on ejaculation at reduced dose” value in test [1] (0.1 mg/kg subcutaneous, 40 Hz, FIG. 3) is on record as “inhibitory effect diminished”. The “inhibitory effect on ejaculation with co-injected antagonist” value in test [1] (0.5 mg/kg SNC-80 plus 0.1 mg/kg NTI subcutaneous, 35 Hz, FIG. 4) is “abolished; also recorded: inhibitory effect was blocked”. The “reduction of ejaculation (factor)” value in test [1] (0.5 mg/kg subcutaneous, 35 Hz, 10 minutes after injection, FIG. 4) is listed as “at least 2”. Also, the “occurrence of ejaculation versus control group” value in test [1] (1 mg/kg subcutaneous, 40 Hz, 10 minutes after injection, FIG. 3) was “significantly reduced the occurrence of ejaculation”.
Usually EC50 stands for the concentration that produces a half-maximal response. Higher therefore signals a need for much substance. Regarding `CCN(CC)C(=O)c1cccc([C@H](c2cccc(O)c2)N2C[C@@H](C)N(Cc3cccc(O)c3)C[C@@H]2C)c1` [Example 17, N,N-Diethyl-3-((R)-((2S,5R)-2,5-dimethyl-4-(3-hydroxybenzyl)piperazin-1-yl)(3-hydroxyphenyl)methyl)benzamide], the results for the Ki on delta opioid receptor (setting [4]), at κ opioid receptor (setting [5]) and on μ opioid receptor were 0.66 nM, 20.9 nM and 1.28 nM, respectively. For the same compound, in the test with mouse vas deferens [3], the midpoint of the response, the EC50, lay at 2.9 nM. Besides, the “Max. ejaculation Inhibition” value in test [1] came to 50%. For the same compound, the “Optimal Dose” value in test [1] is recorded as 1 mg/kg.
Consider `CCN(CC)C(=O)c1ccc([C@H](c2cccc(O)c2)N2C[C@@H](C)N(Cc3ccc(F)cc3)C[C@@H]2C)cc1` [Example 11, 4-((alpha-R)-alpha-((2S,5R)-2,5-Dimethyl-4-(4-fluorobenzyl)-1-piperazinyl)-3-hydroxybenzyl)-N,N-diethylbenzamide], for which the Ki at delta opioid receptor (setting [4]) is 1.23 nM; on κ opioid receptor (setting [5]), over 100 nM; at μ opioid receptor it was 27.1 nM. Besides, the EC50 in the test on mouse vas deferens [3] amounted to 2.8 nM. Besides, in test [1], the “Max. ejaculation Inhibition” value is on record as 30%. Also, in test [1], the “Optimal Dose” value is given as 5 mg/kg.
In the case of `CCN(CC)C(=O)c1ccc([C@H](c2cccc(O)c2)N2C[C@@H](C)N(Cc3cccc(F)c3)C[C@@H]2C)cc1` [Example 36, 4-((alpha-R)-alpha-((2S,5R)-2,5-Dimethyl-4-(3-fluorobenzyl)-1-piperazinyl)-3-hydroxybenzyl)-N,N-diethylbenzamide], in test [1], the “Effective Dose” value was determined as 3 mg/kg and the “Ejaculation Inhibition %” value is on record as 60%.
In the case of `CCN(CC)C(=O)c1ccc([C@H](c2cccc(OCC(=O)O)c2)N2C[C@@H](C)N(Cc3ccccc3)C[C@@H]2C)cc1` [Example 15, 3-((alpha-R)-alpha-((2S,5R)-4-Benzyl-2,5-dimethyl-1-piperazinyl)-4-(diethylaminocarbonyl)benzyl)phenoxyacetic acid], in test [1], the “Effective Dose” value is recorded as 3 mg/kg and the “Ejaculation Inhibition %” value is 66%.
On to “4-(alpha-R)-alpha-((2S,5R)-4-(Cyclopropylmethyl)-2,5-dimethyl-1-piperazinyl)-3-hydroxybenzyl)-N,N-diethylbenzamide [Example 35]”, for which, in test [1], the “Effective Dose” value was found to be 0.3 mg/kg and the “Ejaculation Inhibition %” value is 60%.
In the same order, the values of `CCN(CC)C(=O)c1ccc([C@H](c2ccccc2)N2C[C@H](C)N(Cc3cccc(F)c3)C[C@H]2C)cc1` [Example 41, 4-((alpha-S)-alpha-((2R,5S)-2,5-Dimethyl-4-(3-fluorobenzyl)-1-piperazinyl)benzyl)-N,N-diethylbenzamide] are 0.4 mg/kg and 75%.
Regarding `CCN(CC)C(=O)c1ccc([C@H](c2cccc(O)c2)N2C[C@@H](C)N(Cc3ccccc3)C[C@@H]2C)cc1` [Example 12, 4-((alpha-R)-alpha-((2S,5R)-4-Benzyl-2,5-dimethyl-1-piperazinyl)-3-hydroxybenzyl)-N,N-diethylbenzamide], the Ki on delta opioid receptor (setting [4]) amounted to 0.123 nM; at κ opioid receptor (setting [5]) it was 68.7 nM; at μ opioid receptor, 1.45 nM. The compound also yielded an EC50 with mouse vas deferens [3] of 4.4 nM. Also, the “Max. ejaculation Inhibition” value in test [1] is listed as 28%. In addition, the “Optimal Dose” value in test [1] turned out to be 5 mg/kg.
With `C=CCN1C[C@@H](C)N([C@H](c2ccc(S(=O)(=O)N(C)C)cc2)c2cccc(O)c2)C[C@@H]1C` [Example 40, 4-[(R)-((2R,5S)-4-Allyl-2,5-dimethylpiperazin-1-yl)(3-hydroxyphenyl)methyl]-N,N-dimethylbenzenesulfonamide], in test [1], the “Effective Dose” value is given as 0.3 mg/kg and the “Ejaculation Inhibition %” value is 50%.
Regarding `CCN(CC)C(=O)c1ccc([C@H](c2cccc(O)c2)N2C[C@@H](C)N(Cc3ccc(C(=O)O)cc3)C[C@@H]2C)cc1` [Example 13, 4-{(2R,5S)-4-[(R)-(4-Diethylcarbamoylphenyl)(3-hydroxyphenyl)methyl]-2,5-dimethylpiperazin-1-ylmethyl)benzoic acid], the Ki on delta opioid receptor was 5.69 nM; on κ opioid receptor, over 100 nM; at μ opioid receptor, 3470 nM. Moreover, the EC50 in the test with mouse vas deferens [3] is 21.2 nM. Also, the “Max. ejaculation Inhibition” value in test [1] was found to be 50%. In test [1], the “Optimal Dose” value amounted to 5 mg/kg.
In the case of `CCN(CC)C(=O)c1ccc([C@H](c2cccc(OC)c2)N2C[C@@H](C)N(Cc3ccc(F)cc3)C[C@@H]2C)cc1` [Example 29, 4-((alpha-R)-alpha-((2S,5R)-2,5-Dimethyl-4-(4-fluorobenzyl)-1-piperazinyl)-3-methoxybenzyl)-N,N-diethylbenzamide], in test [1], the “Effective Dose” value is given as 3 mg/kg and the “Ejaculation Inhibition %” value is reported as 38%.
On the same counts, the results for `CCN(CC)C(=O)c1ccc([C@H](c2cccc(OC)c2)N2C[C@@H](C)N(Cc3ccccc3)C[C@@H]2C)cc1` [Example 38] are 3 mg/kg and 33%.
On to `C=CCN1C[C@H](C)N([C@H](c2ccc(C(=O)N(CC)CC)cc2)c2cccc(OCC(=O)O)c2)C[C@H]1C` [Example 14, 3-((alpha-R)-alpha-((2S,5R)-4-Allyl-2,5-dimethyl-1-piperazinyl)-4-(diethylamino-carbonyl)benzyl)phenoxyacetic acid], for which the Ki on delta opioid receptor is 11.1 nM. In the test with mouse vas deferens [3], this compound had an EC50 of 7.2 nM. At κ opioid receptor, the Ki was over 100 nM. The Ki at μ opioid receptor (radio-ligand competition binding per U.S. Pat. Nos. 5,985,880 and 5,807,858, read-out: μ binding affinity) amounted to 162 nM. In test [1], the “Effective Dose” value is on record as 0.01 mg/kg, the “Ejaculation Inhibition %” value is recorded as 45%, the “Max. ejaculation Inhibition” value is recorded as 35% and the “Optimal Dose” value is 10 mg/kg.
As to `Oc1ccc2c3c1O[C@H]1c4[nH]c5ccccc5c4C[C@@]4(O)[C@@H](C2)N(CC2CC2)CC[C@]314` [NTI, naltrindole, reference compound], the “ejaculation response, antagonist alone” value in test [1] (0.1 mg/kg subcutaneous, 35 Hz, FIG. 4) was “did not affect the ejaculation response”.

These data come from patent US8865721B2, “Delta opioid receptor agonist compounds” (priority 2001, dated 2014).
